These results are taken from US20240285580A1, “COMPOSITIONS AND METHODS FOR EXTENDED RELEASE CROMAKALIM THERAPY” (Qlaris Bio, Inc., priority 2021, published 2024).

One series has as its system KATP channels. As to conditions: membrane patches from rabbit mesenteric arterial smooth muscle cells, in the presence of ATP; cited from earlier work.
For series [1] the following is noted: in vivo; cited from earlier work.
The conditions of series [2]: cited from earlier work.
For series [3] the following is noted: trials terminated; most likely due to poor bioavailability; cited from earlier work.
Series [4] concerns isolated rat mesenteric lymph vessels. As to conditions: cited from earlier work; for rhythmic contractions of isolated rat mesenteric lymph vessels: exposure to KATP channel openers.
The next series deals with CD31 and VE-Cadherin. Nature of the series: Expression of biomarker proteins for hyperemia and vessel integrity. The conditions noted are these: compared to Y-27632, a Rho kinase inhibitor. From the text: Furthermore, the effect of levcromakalim on selected biomarkers for hyperemia and perturbations to vessel integrity has been established.

Counter-ions that a name gives are not always drawn.

For the compound `CC1(C)Oc2ccc(C#N)cc2C(N2CCCC2=O)C1O` (stereo not shown) [Cromakalim, cromakalim], in the series with KATP channels, the “increase of open-state probability (Popen) of single KATP channels” value is recorded as “more than 9 fold”. Further, in series [1], the “effect on blood pressure” value is recorded as “lower blood pressure”. Also, the solubility in water result in series [2] is reported as “substantially insoluble in water”. The “outcome of human clinical trials” value in series [3] was “lack of activity”. Besides, in series [4], the “rhythmic contractions of isolated rat mesenteric lymph vessels” value (“rhythmic contractions” for short) is on record as “progressively impaired”. Moreover, in series [4] (increasing concentrations, flow impaired by attenuating frequency and amplitude), the “contractions of the vessels at increasing concentrations” value is recorded as “ultimately abolished the contractions”.
With `CC1(C)Oc2ccc(C#N)cc2[C@@H](N2CCCC2=O)[C@@H]1O` [Levcromakalim, levcromakalim], the “impact on expression of measured proteins indicative of tissue and vessel integrity” value in the series with CD31 and VE-Cadherin is given as “no significant impact”.
Take `CC1=NS(=O)(=O)c2cc(Cl)ccc2N1` [diazoxide]: the “effect on blood pressure” value in series [1] is recorded as “lower blood pressure”. In addition, the “rhythmic contractions” value in series [4] is listed as “progressively impaired”.
Regarding `Nc1cc(N2CCCCC2)nc(N)[n+]1OS(=O)(=O)[O-]` [minoxidil sulfate], the “rhythmic contractions” value in series [4] is “progressively impaired”.
